# In article PMC7617459, “Comparative Evaluation and Profiling of Chemical Tools for the Nuclear Hormone Receptor Family 2” (ACS pharmacology & translational science, 2025):
# Like-named read-outs stand apart in the source and are kept apart here.
# What was measured:
# COS-7 cells = experiment: Multiplex toxicity assay; format: cell-based; conditions: 24 h, at active concentration
# Experimental: COS-7 cells (DSMZ #ACC 60) were cultured at 37°C and 5% CO2 in DMEM high glucose medium supplemented with sodium pyruvate (1 mM), penicillin (100 U/mL), streptomycin (100 µg/mL), and 10% fetal calf serum (FCS). After aspirating the wells, the cells were seeded at 1x10^5 cells per well in complete culture medium. […] Each sample was prepared in at least 4 biologically independent replicates. After incubation for 24 h, the wells were aspirated and incubated for 30 min with stimulation medium containing 1 µM NucView® 405 fluorogenic caspase-3 substrate (#10405, Biotium, Fremont, USA) and Live-or-Dye Nuc-Fix Red (0.05x, Biotium, Inc., Fremont, CA, 1691 USA) to detect apoptosis and necrosis, respectively. After incubation, a total of 6 fluorescence images per well at 10x magnification were taken to detect NucView®-positive (Ex: 381–400 nm, Em: 414–450 nm) and Live-or-Dye-positive cells (Ex: 543−566 nm, Em: 580−611 nm) using on a Tecan Spark Cyto (Tecan Group AG). Reference readings for background correction and detection of auto-fluorescence were taken at 414–450 nm prior to staining. Thereafter, wells were aspirated, the cells were incubated for 3 h with 90 µL culture medium (0.2% FCS) and 10 µL Cell Counting Kit-8 solution (CCK-8, MedChem Express #HY-K0301), and absorbance was measured at 1, 2, and 3h of incubation at 450 nm on a Tecan Spark Cyto to assess metabolic activity of the cells. Before drug administration, after the first medium exchange, 24 h after drug administration, and after fluorescence imaging cell confluence was assessed using the Tecan Spark Cyto, to account for changes in cell confluence due to drug administration and cell handling. The number of apoptotic cells, metabolic activity, and changes in cell confluence in response to drug treatment were all normalized to the vehicle control of each biological replicate individually.
# Gal4-VP16 = test system: Gal4-VP16; parameters: method as in PMID 16834531; conditions: cited from earlier work
# PNR (NR2E3) = biological target: T1, PNR (NR2E3) (Homo sapiens, UniProt Q9Y5X4); experiment: Gal4-hybrid reporter gene assay PNR; format: cell-based; conditions: selected test concentration (Figure 3)
# T1 construct: encoding the hinge region and the LBD of the canonical isoform of the respective human nuclear receptors; expressed in transfected cells; host or cells: HEK293T
# T1 sequence (Q9Y5X4 169-410 limits assumed): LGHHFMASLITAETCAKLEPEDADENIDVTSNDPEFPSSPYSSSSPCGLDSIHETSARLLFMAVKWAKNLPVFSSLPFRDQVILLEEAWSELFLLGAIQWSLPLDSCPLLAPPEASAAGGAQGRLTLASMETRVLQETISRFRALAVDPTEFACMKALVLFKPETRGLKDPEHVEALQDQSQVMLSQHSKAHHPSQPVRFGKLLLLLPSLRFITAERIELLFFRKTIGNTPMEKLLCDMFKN
# Experimental: Gal4-hybrid reporter gene assays were performed as described previously using the plasmids pFA-CMV-hTHRα-LBD,[170] pFA-CMV-hRARα-LBD,[171] pFA-CMV-hPPARα-LBD,[172] pFA-CMV-hPPARγ-LBD,[172] pFA-CMV-hPPARδ-LBD,[172] pFA-CMV-revERBα-LBD,[158] pFA-CMV-hRORα-LBD,[173] pFA-CMV-hLXRα-LBD,[118] pFA-CMV-hFXR-LBD,[174] pFA-CMV-hVDR-LBD,[171] pFA-CMV-hCAR-LBD,[171] pFA-CMV-hHNF4α-LBD,[110] pFA-CMV-hRXRα-LBD,[175] pFA-CMV-hTR2-LBD,[102] pFA-CMV-hTR4-LBD,[102] pFA-CMV-hTLX-LBD,[102] pFA-CMV-hNR2E3-LBD,[102] pFA-CMV-hNur77-LBD,[176] pFA-CMV-hSF1-LBD[158] encoding the hinge region and the LBD of the canonical isoform of the respective human nuclear receptors. pFR-Luc (Stratagene, La Jolla, CA, USA) was used as a reporter plasmid, and pRL-SV40 (Promega, Madison, WI, USA) was used for normalization of transfection efficiency and cell growth. HEK293T cells (German Collection of Microorganisms and Cell Culture GmbH, DSMZ) were cultured in Dulbecco’s modified Eagle’s medium (DMEM), high glucose supplemented with 10% fetal calf serum (FCS), sodium pyruvate (1 mM), penicillin (100 U/mL), and streptomycin (100 μg/mL) at 37 °C and 5% CO2 and seeded in 96-well plates (3 × 10^4 cells/well). The medium was changed to Opti-MEM without supplements, and the cells were transiently transfected with one pFA-CMV-hNR-LBD clone, pFR-Luc, and pRL-SV40 using Lipofectamine LTX reagent (Invitrogen, Thermo Fisher Scientific) according to the manufacturer’s instructions. Five hours after transfection, cells were incubated with the test compounds in Opti-MEM supplemented with penicillin (100 U/mL), streptomycin (100 μg/mL), and 0.1% DMSO. Each sample was set up in duplicates and tested in at least three independent experiments. After 16 h incubation, luciferase activity was measured using the Dual-Glo Luciferase Assay System (Promega) according to the manufacturer’s protocol on a Tecan Spark luminometer (Tecan Deutschland GmbH, Crailsheim, Germany). Firefly luminescence was divided by Renilla luminescence and multiplied by 1000 resulting in relative light units (RLUs) to normalize for transfection efficiency and cell growth. Fold activation was obtained by dividing the mean RLU of the test compound by the mean^a RLU of the untreated control, and relative activation was calculated by dividing the fold activation of a test sample by the fold activation of the respective reference agonist. Antagonistic effects were evaluated by coincubation of the test compound with the respective reference ligand.
# PNR [1] = conditions: reporter gene assay; cited from earlier work
# nuclear receptors = experiment: Selectivity profiling in Gal4-hybrid reporter gene assay panel; format: cell-based, human; conditions: at active concentration
# Experimental: Compounds were tested at concentrations around EC90 according to the literature or at the highest nontoxic concentration (from the multiplex toxicity assay). […] (b) Selectivity profiling of NR2 modulators in a representative panel of nuclear receptors outside the NR2 family. […] Effects <5% of the respective reference ligands were considered as not relevant and omitted. Only effects are shown that are statistically significant against VP16 ctrl (Figure S3); n = 3.
# ATF6 = ATF6 activity assay; format: cell-based; conditions: tunicamycin treated Hela ATF6 reporter cells
# Source text: Next, we evaluated the potential impact of the NR2 modulator set on endoplasmic reticulum (ER) stress in an ATF6 activity assay (Fig. 4b). The activating transcription factor 6 (ATF6) participates in the unfolded protein response and is activated under ER stress.[164] Tunicamycin-induced ATF6 activity was not affected by RXR and TLX modulators but was reduced by the inverse PNR agonists 22 and 23.
# Hela cells containing a Renilla luciferase reporter gene for ATF6 activity (ATF6 Leeporter™ Luciferase Reporter-HeLa Cell Line, Abeomics Inc.; #14-138ACL) were cultured in DMEM supplemented with 10% heat-inactivated FCS, penicillin (100 U/mL), streptomycin (100 μg/mL) and puromycin (3 µg/mL) at 37°C and 5% (v/v) CO2 and seeded in 96-well plates (1 × 10^5 per well). After 24 h, the cells were incubated with the test compounds solubilized with 0.1% DMSO in the same medium without puromycin. After 4 h of incubation, tunicamycin (100 ng/mL) was added. After another 18 h of incubation, cells were assayed for renilla luminescence using DualGlo reagent (Promega) on a Tecan SPARK Cyto (Tecan). Test samples were normalized to the 0.1% DMSO control.
# rhodopsin expression = test system: rhodopsin expression; parameters: method as in PMID 29148976, PMID 27893103; conditions: cited from earlier work; for rhodopsin expression: murine retinal cells, immunofluorescence and qRT-PCR
# [2] = test system: HNF4α, RXRα, PPARα, LXRα, GR, PR, ER, RAR, RORγ, AR, and COUP-TF1; parameters: method as in PMID 32494682; conditions: cited from earlier work
# [3] = test system: COUP-TF2 target genes FOXM1 and CDK1; parameters: method as in PMID 32494682; conditions: prostate cancer cells; cited from earlier work
# COUP-TF2 = test system: COUP-TF2; parameters: method as in PMID 32494682; conditions: reporter gene assay; cited from earlier work
# NR2E3 = test system: NR2E3; parameters: method as in PMID 16879962; conditions: reporter gene assay, cited from earlier work
# TLX [4] = conditions: DSF assays; cited from earlier work
# HEK293T cells = conditions: cited from earlier work
# TLX expression = conditions: cited from earlier work
# TLX [5] = biological target: T2, TLX (Homo sapiens, UniProt Q9Y466); experiment: Gal4-hybrid reporter gene assay TLX; format: cell-based; conditions: selected test concentration (Figure 3)
# T2 construct: encoding the hinge region and the LBD of the canonical isoform of the respective human nuclear receptors; expressed in transfected cells; host or cells: HEK293T
# T2 sequence (Q9Y466 155-383 limits assumed): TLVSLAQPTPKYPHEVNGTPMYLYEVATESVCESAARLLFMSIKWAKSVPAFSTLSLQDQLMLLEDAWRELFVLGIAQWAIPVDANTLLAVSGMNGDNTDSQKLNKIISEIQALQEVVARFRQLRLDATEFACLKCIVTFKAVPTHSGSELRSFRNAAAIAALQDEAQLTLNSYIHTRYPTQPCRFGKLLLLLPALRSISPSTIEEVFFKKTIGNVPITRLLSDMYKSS
# [6] = microsomes; cited from earlier work
# TLX [7] = conditions: reporter gene assay; read-out: EC50; cited from earlier work
# TLX-regulated genes = conditions: human glioblastoma cells (T98G), qRT-PCR; cited from earlier work
# human insulin promoter = conditions: insulin promoter assay, cited from earlier work
# HNF4α [8] = biological target: T3, HNF4α (Homo sapiens, UniProt P41235); experiment: Gal4-hybrid reporter gene assay HNF4α; conditions: 3 µM, HEK293T
# T3 sequence (P41235 147-377 limits assumed): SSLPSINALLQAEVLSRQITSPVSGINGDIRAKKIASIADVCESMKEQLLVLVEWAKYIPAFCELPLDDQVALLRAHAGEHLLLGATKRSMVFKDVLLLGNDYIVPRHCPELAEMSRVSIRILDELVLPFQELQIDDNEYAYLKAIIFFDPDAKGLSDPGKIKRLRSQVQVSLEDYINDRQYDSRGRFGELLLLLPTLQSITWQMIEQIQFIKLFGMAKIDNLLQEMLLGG
# [9] = test system: HNF4α and a set of its target genes; parameters: method as in PMID 22840769; conditions: T6PNE cells; cited from earlier work
# HNF4α [10] = biological target: HNF4α; parameters: method as in PMID 22840769; conditions: cited from earlier work
# [11] = parameters: method as in PMID 31298602, PMID 30702885; conditions: cited from earlier work
# [12] = cited from earlier work
# PNR [13] = biological target: PNR; parameters: method as in PMID 29148976; conditions: ITC, cited from earlier work
compound,measurement,setting,value
Cc1cc(C)cc(NC(=O)CCc2nc3sc4c(c3c(=O)[nH]2)CCCC4)c1 [compound 22],cytotoxicity,COS-7 cells,lack of cytotoxicity
same,activity in control experiments using Gal4-VP16,Gal4-VP16,inactive
same,PNR modulation,PNR (NR2E3),confirmed albeit with rather low efficacy
same,IC50,PNR [1],250 nM
same,selectivity over other nuclear receptors,nuclear receptors,Favorable selectivity profiles
same,tunicamycin-induced ATF6 activity,ATF6,reduced
same,rhodopsin expression,rhodopsin expression,dose-dependent reduction
COc1ccc(CCNc2ncnc3sccc23)cc1OC [compound 28],interaction with related NRs in pulldown assay,[2],no relevant interaction
same,expression of COUP-TF2 target genes FOXM1 and CDK1,[3],altered expression
same,IC50,COUP-TF2,2800 nM
O=C(Nc1ccc(-c2nc3ccc(NC(=O)C4CC4)cc3[nH]2)cc1)c1ccccc1Cl [compound 24],EC50,NR2E3; read-out: EC50 (first value of cell),141 nM
same,EC50,NR2E3; read-out: EC50 (second value of cell),35 nM
Cc1cc(C(=O)N2CCN(C(c3ccccc3)c3ccccc3)CC2)nn1C [compound 15],Kd,TLX [4],650 nM
same,toxicity in WST-1 assay,HEK293T cells,Low toxicity
same,TLX expression,TLX expression,not affected
same,TLX modulation,TLX [5],not observed
same,t1/2 against microsomal degradation,[6],< 15 min
same,EC50,TLX [7],1000 nM
same,"SIRT, SLC1a1 and p21 induction",TLX-regulated genes,trend toward SIRT and SLC1a1 but not p21 induction
Cc1nc2ccccc2n1S(=O)(=O)c1cc([N+](=O)[O-])ccc1Cl [compound 1],IC50,human insulin promoter,900 nM
same,IC50,human insulin promoter; listed as BIM5078 (1),930 nM
same,effects on HNF4 activity,HNF4α [8],no effects
same,expression of HNF4α and a set of its target genes,[9],suppress the expression
same,Kd,HNF4α [10]; Try/Trp fluorescence quenching assays,12 nM
same,EC50,"HNF4α [10]; direct binding, read-out: EC50 of quenching of intrinsic Tyr/Trp fluorescence of HNF4α",11.9 nM
"C=C(c1ccc(C(=O)O)cc1)c1cc2c(cc1C)C(C)(C)CCC2(C)C [compound 6, bexarotene]",lipophilicity,[11],highly lipophilic
same,adverse effects associated with clinical use,[12],"elevated triglyceride and cholesterol levels, leukopenia, hypothyroidism, and an increased risk of acute pancreatitis"
COc1cc2nc(CN3CC=C(c4ccccc4)CC3)nc(O)c2cc1OC [compound 23],cytotoxicity,COS-7 cells,lack of cytotoxicity
same,activity in control experiments using Gal4-VP16,Gal4-VP16,inactive
same,PNR modulation,PNR (NR2E3),confirmed albeit with rather low efficacy
same,IC50,PNR [1],70 nM
same,Kd,PNR [13],67000 nM
same,Kd,PNR [13]; listed as Photoregulin3 (23),64000 nM
same,selectivity over other nuclear receptors,nuclear receptors,Favorable selectivity profiles
same,tunicamycin-induced ATF6 activity,ATF6,reduced
same,Rho mRNA expression,rhodopsin expression,decreased
same,rhodopsin expression,rhodopsin expression,dose-dependent reduction
